# Data published in patent publication US20160115141A1, “CARBOXYLIC ACID DERIVATIVES FOR TREATMENT OF OXIDATIVE STRESS DISORDERS” (EDISON PHARMACEUTICALS, INC., priority 2013, published 2016).
# Test system: FRDA fibroblasts stressed by addition of L-buthionine-(S,R)-sulfoximine (BSO)
# Assay: Rescue of BSO-stressed human dermal fibroblasts from Friedreich's Ataxia patients (Calcein AM viability)
# Format: cell-based
# Conditions: FRDA fibroblasts GM04078, 1 mM BSO, 48 h, average, compounds of the invention
# Procedure: An initial screen was performed to identify compounds effective for the amelioration of redox disorders. Test samples, 4 reference compounds (idebenone, decylubiquinone, Trolox and alpha-tocopherol), and solvent controls were tested for their ability to rescue FRDA fibroblasts stressed by addition of L-buthionine-(S,R)-sulfoximine (BSO), as described in Jauslin et al., Hum. Mol. Genet. 11(24):3055 (2002), Jauslin et al., FASEB J. 17:1972-4 (2003), and International Patent Application WO 2004/003565. […] This specific BSO-mediated cell death can be prevented by administration of antioxidants or molecules involved in the antioxidant pathway, such as alpha-tocopherol, selenium, or small molecule glutathione peroxidase mimetics. However, antioxidants differ in their potency, i.e. the concentration at which they are able to rescue BSO-stressed FRDA fibroblasts.
# MEM (a medium enriched in amino acids and vitamins, catalog no. 1-31F24-I) and Medium 199 (M199, catalog no. 1-21F22-I) with Earle's Balanced Salts, without phenol red, were purchased from Bioconcept. Fetal Calf Serum was obtained from PAA Laboratories. Basic fibroblast growth factor and epidermal growth factor were purchased from PeproTech. Penicillin-streptomycin-glutamine mix, L-buthionine (S,R)-sulfoximine, (+)-alpha-tocopherol, decylubiquinone, and insulin from bovine pancreas were purchased from Sigma. Trolox (6-Hydroxy-2,5,7,8-tetramethylchromane-2-carboxylic acid) was obtained from Fluka. Idebenone was obtained from Chemo Iberica. Calcein AM was purchased from Anaspec. Cell culture medium was made by combining 125 ml M199 EBS, 50 ml Fetal Calf Serum, 100 U/ml penicillin, 100 microgram/ml streptomycin, 2 mM glutamine, 10 microgram/ml insulin, 10 ng/ml EGF, and 10 ng/ml bFGF; MEM EBS was added to make the volume up to 500 ml. A 10 mM BSO solution was prepared by dissolving 444 mg BSO in 200 ml of medium (Invitrogen, Carlsbad, Ca.) with subsequent filter-sterilization. During the course of the experiments, this solution was stored at +4° C. […]
row,Structure (SMILES),EC50
1,CC1=C(C)C(=O)C(CCC(C)(O)CCC(N)=O)=C(C)C1=O (stereo not drawn),70 nM
2,CCOC(=O)CCC(C)(O)CCC1=C(C)C(=O)C(C)=C(C)C1=O (stereo not drawn),275 nM
3,CC1=C(C)C(=O)C(CCC2(C)CCC(=O)O2)=C(C)C1=O (stereo not drawn),270 nM
